According to patent publication US7049323B2, “Amidoheterocycles as modulators of the melanocortin-4 receptor” (Bristol-Myers Squibb Company, priority 2003, dated 2006):

What was measured:
[1] = target: T1, cloned human MC4R receptors (Homo sapiens, UniProt P32245); assay: Melanocortin MC4R membrane binding assay ([125I]NDP-α-MSH competition); details: [125I]NDP-α-MSH 0.1 nM, membranes of Hi5 insect cells or HEK-293 cells, 90 minutes at 37° C.
T1 construct: expressed in transfected cells; host or cells: Hi5 insect cells or HEK-293 cells (baculovirus/human MC4R receptor construct); membranes
Experimental: Melanocortin MC4R Binding Assay. […] A membrane binding assay was used to identify competitive ligands of [^125I]NDP-α-MSH binding to cloned human MC4R receptors expressed in Hi5 insect cells or HEK-293 cells transfected by a baculovirus/human MC4R receptor construct. The membrane binding buffer was composed of 25 mM HEPES, pH 7.4, 140 mM NaCl, 1.2 mM MgCl2, 2.5 mM CaCl2, and 0.1% BSA Membrane protein (0.5 μg) and [^125I]-NDP-α-MSH (to a final concentration of 0.1 nM) were added. Competing ligands or a buffer blank were added and incubated for 90 minutes at 37° C. After filtration, the cell membranes were evaluated in a Wallac Microbeta Trilux Scintillation and Luminescence Counter (Model 1450). Dose-response cureves were fitted by […] analyses and IC50 values are calculated using ExcelFit.

[2] = test system: Rodents (NPY, ob/ob, agouti, fasted feeding models); details: injected intracerebroventricularly (ICV); cited from earlier work
[3] = test system: male volunteers / patients with psychogenic erectile dysfunction; details: cited from earlier work
[4] = intramuscular, 0.005–0.03 mg/kg, three normal male volunteers

T1 sequence (P32245 whole entry): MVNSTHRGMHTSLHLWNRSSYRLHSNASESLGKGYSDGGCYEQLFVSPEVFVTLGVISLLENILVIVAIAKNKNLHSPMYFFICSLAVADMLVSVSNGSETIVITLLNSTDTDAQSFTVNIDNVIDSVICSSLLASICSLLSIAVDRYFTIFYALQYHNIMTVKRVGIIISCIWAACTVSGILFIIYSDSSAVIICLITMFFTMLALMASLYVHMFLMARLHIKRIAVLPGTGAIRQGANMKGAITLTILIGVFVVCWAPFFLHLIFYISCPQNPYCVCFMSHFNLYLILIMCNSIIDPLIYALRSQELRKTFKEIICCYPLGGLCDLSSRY

`CC(C)CC(=O)N(CC(C)C)[C@H]1CCN(C(=O)[C@@H](Cc2ccc(Cl)cc2)NC(=O)CCN(C)C)C1` [Example 66] showed an IC50 [1] of 1 to 10 µM.
For `CN(C)CCC(=O)N[C@H](Cc1ccc(Cl)cc1)C(=O)N1CC[C@H](N(C2CCCCC2)S(=O)(=O)c2ccccc2)C1` [Example 67], the IC50 [1] was < 0.25 µM.
Work on `CC(C)C(=O)N(C1CCCCC1)[C@H]1CCN(C(=O)[C@@H](Cc2ccc(Cl)cc2)NC(=O)[C@H]2CCN2C)C1` [Example 68] yielded an IC50 [1] of 0.25 to 1 µM.
In the case of `CC(C)C(=O)N(C1CCCCC1)[C@H]1CCN(C(=O)[C@@H](Cc2ccc(Cl)cc2)NC(=O)[C@@H]2CCN2C)C1` [Example 69], the IC50 [1] is reported as < 0.25 µM.
For SHU-9119, the food intake [2] is listed as “reverses this effect and can induce hyperphagia”.
In the case of melanotan-II [MT-II], the penile erections [3, 4] is listed as “caused intermittent non-painful penile erections”, the “period of erections after dosing” value [3, 4] is listed as 1 to 5 h and the erections ([3]; subcutaneous, 0.025 mg/kg and 0.1 mg/kg, 10 patients with psychogenic erectile dysfunction) is listed as “caused transient erections”. The responders ([3]; subcutaneous, 0.025 mg/kg and 0.1 mg/kg, of 10 patients with psychogenic erectile dysfunction) was 8, the onset of erections ([3]; subcutaneous, 0.025 mg/kg and 0.1 mg/kg, patients with psychogenic erectile dysfunction) was 50 to 180 min and the food intake [2] was “reduced food intake”.
